Source: a melting point compilation (Tetko et al.)

Compound | melting point
O=C1CCCc2c(O)cccc21 | 207 to 210 °C
COC(=O)C1=C(C)NC(=S)NC1c1ccc([N+](=O)[O-])cc1 (stereo not given) | 175 °C
O=[N+]([O-])c1ccc(Br)s1 | 44 °C
CC(O)(c1ccccc1)c1ccccc1 | 80 °C
CCCCCC(C)Br (stereo not given) | 47 °C
Cc1ccc(S(N)(=O)=O)cc1Cl | 137 °C
O=C(O)c1cccc(N2CCCC2)n1 | 134 to 136 °C
COc1c(F)cc(Br)cc1[N+](=O)[O-] | 55 °C
CCOC(=O)C1=C(C)NC(=S)NC1c1ccco1 (stereo not given) | 174 to 175 °C
O=C(C=Cc1ccccc1)OCC=Cc1ccccc1 | 44 °C
O=C(O)c1c(Br)cccc1Br | 150 °C
COC(=O)C1(C(=O)OC)Cc2ccc(OC)cc2C(=O)O1 | 142 °C
CCCc1ccc(-c2ccc(C(=O)O)cc2)cc1 | 226 °C
NCCP(=O)(O)O | 296 °C
O=S(=O)(CCl)c1ccccc1 | 54 °C
CC(SCc1ccccc1)C(=O)O (stereo not given) | 79 to 81 °C
OC1Cc2ccccc21 (stereo not given) | 58 to 59 °C
N=C(N)S(=O)O | 126 °C
NC(=O)c1ccc(Cl)c([N+](=O)[O-])c1 | 152 °C
CCCCCCCCCCCCCCCCC(=O)OC | 30 °C
Clc1ccc(Cc2c(N=Cc3ccc(OCc4ccccc4)cc3)n[nH]c2N=Cc2ccc(OCc3ccccc3)cc2)cc1 | 145 to 147 °C
O=Cc1cccc(C(F)(F)F)c1Cl | 44 °C
CC(C)(C)OC(=O)N1CCN(c2ccc(C(=O)O)cn2)CC1 | 298 to 300 °C

Compound | melting point
COc1cscc1C(=O)O | 105 to 108 °C
O=S1(=O)CCOCC1 | 132 °C
CCCCCC(O)CCCC (stereo not given) | 8 °C
O=C(CCCCl)c1ccc(Br)cc1 | 37 °C
CC(=O)Oc1cccc([N+](=O)[O-])c1 | 54 °C
OCCCC1CCCCC1 | -60 °C
O=[N+]([O-])c1ccc(N=Nc2ccc(O)c3ccccc23)cc1 | 275 °C
COC(=O)CC(=O)c1ccc(C(=O)OC)cc1 | 81 to 86 °C
O=C(Cc1ccccc1)SSC(=O)Cc1ccccc1 | 59 °C
CC(CC(N)=O)n1nc2ccccc2n1 (stereo not given) | 152 °C
O=C(Cc1cc(CC(=O)Nc2ccccc2)c([N+](=O)[O-])cc1[N+](=O)[O-])Nc1ccccc1 | 267 °C
Cc1cc(C#N)ccc1N | 94 °C
Cn1ncc2cc([N+](=O)[O-])ccc21 | 160 °C
CC(=O)C(=CN)Cc1ccccc1 | 95 °C
CC1NC(=O)NC1CCCCCC(=O)O (stereo not given) | 157 °C
O=C1C(Br)=C(Br)C(=O)C(Br)=C1Br | 292 to 294 °C
Nc1c(Br)cc(Br)cc1C(=O)O | 235 to 236 °C
Cc1cc2c(C#N)c3n(C)c4ccccc4n3c(=O)c2c(C)n1 | 321 °C
O=C1NC(=O)C2CC(c3ccccc3)CCC12 (stereo not given) | 134 to 136 °C
NNc1c(F)cc(F)cc1F | 99 °C
CCOP(=S)(OCC)SCSC(C)(C)C | -29.2 °C
FC(F)(F)c1cnc(N2CCNCC2)c(Cl)c1 | 65 to 67 °C
CCCCCCCCC(C)CC (stereo not given) | -58 °C

Compound | melting point
Fc1cnc(Cl)nc1Cl | 38 °C
Cc1nc(=O)c2ccccc2[nH]1 | 232 °C
Sc1cccc(Cl)c1Cl | 57 to 61 °C
NNC(=O)c1ccc(Cl)cc1 | 164 °C
O=C1C(c2cccc3ccccc23)=[N+]([O-])c2cc([N+](=O)[O-])ccc21 | 223 °C
COc1ncc(F)c2nc(S(=O)(=O)Nc3c(F)cccc3F)nn12 | 194 °C
CCc1nc(N)nc(O)c1C | 303 to 304 °C
CC1CCC2(C)C3=C(C(=O)C4(CC4C)C(O)C3=O)C(O)C(O)C2C1C (stereo not given) | 177 to 178 °C
O=C(O)c1ccc2c(c1)CCO2 | 185 to 188 °C
OC12CC=CCC1(O)CC=CC2 (stereo not given) | 83 °C
O=S(=O)(Cl)c1ccc(Cl)cc1Cl | 54 °C
N#Cc1cc([N+](=O)[O-])ccc1F | 73 to 74 °C
COc1ccc(C(=O)CCCCl)cc1 | 32 °C
CCCCCCCCNC | -11 °C
Cc1cc(C2CCCCC2)n(O)c(=O)c1 | 144 °C
Nc1nn(-c2ccccc2)c2nc3ccccc3nc12 | 210 °C
Brc1ccc(Oc2ccc(Br)c(Br)c2)cc1Br | 94 to 95 °C
O=C(Cl)c1cc(Br)cc2c1OCC2 | 126 to 127 °C
COc1cc(/C=C/c2ccc([N+](=O)[O-])cc2[N+](=O)[O-])ccc1O | 191 °C
CCOC(=O)NN | 46 °C
Cc1ccc2sc(S(=O)(=O)Cl)cc2c1 | 83 °C
O=C1OC(=O)c2cc([N+](=O)[O-])cc3cccc1c23 | 247 to 254 °C
CCOC1OC(C(N)=O)=CC(C)C1Br (stereo not given) | 131 °C

Compound | melting point
O=C(OC1C(=O)OC(=O)C1OC(=O)c1ccccc1)c1ccccc1 (stereo not given) | 174 °C
CC(=O)C(C)(CCC(=O)O)CCC(=O)O | 123 °C
Clc1ccc2nc(Cl)c(Cl)nc2c1 | 143 to 148 °C
c1ccc2c(-c3cccc4ccccc34)cccc2c1 | 160 °C
N#CC1(C(=O)c2ccccc2)C(c2ccccc2)NC(=O)NC1c1ccccc1 (stereo not given) | 215 to 216 °C
N#CC1=C(N)n2nc(C(F)(F)F)nc2NC1c1c(Cl)cccc1Cl (stereo not given) | 323 °C
CCc1cccc(CC)c1N | 3.5 °C
Clc1n[nH]c2ccccc12 | 149 °C
CC(C=CC=C(C)C=CC1=C(C)CC(O)CC1(C)C)=CC=CC=C(C)C=CC=C(C)C=CC1C(C)=CC(O)CC1(C)C (stereo not given) | 196 °C
CCOC(=O)C1=C(C)NC(=O)NC1c1ccco1 (stereo not given) | 206 °C
CS(=O)(=O)c1ccc(F)c([N+](=O)[O-])c1 | 152 to 158 °C
O=COCC=Cc1ccccc1 | 0 °C
CC12CCCC1C1CC=C3CC(O)CCC3(C)C1CC2 (stereo not given) | 136 °C
O=C(CBr)c1cccc(C(F)(F)F)c1 | 22 °C
Clc1ccccc1-c1nc2ccccc2[nH]1 | 234 °C
CCNCC | -50 °C
CCCC1C(=O)C2(C)CCC1C2(C)C (stereo not given) | 128 °C
NNC(=O)c1csc(-c2cccc(Cl)c2Cl)n1 | 230 to 233 °C
Cc1cc(N)n[nH]1 | 41 to 43 °C
O=C(C=Cc1ccc(Br)cc1)c1ccc(Cl)cc1 | 167 to 168 °C
CC(=O)c1ccc(F)c(Cl)c1 | 42 to 44 °C
Cc1nc(-c2ccc(C(F)(F)F)cc2)sc1C=O | 131 to 133 °C
Clc1cc2oc3cc(Cl)c(Cl)c(Cl)c3c2cc1Cl | 225 °C

Compound | melting point
Cc1ccn2nc(S(=O)(=O)Nc3c(F)cccc3F)nc2n1 | 252 °C
N#CC1=Cc2ccccc2C1 | 40 °C
COc1cccc(C#N)c1 | 23 °C
Cc1cc(C)c(NC(N)=S)c(C)c1 | 231 °C
Nc1ccc2ccccc2c1N=Nc1ccccc1 | 103 °C
O=C(OC1CCCCC1)c1ccccc1C(=O)OC1CCCCC1 | 66 °C
Cc1ccc(O)c(C(=O)C(F)(F)F)c1 | 41 °C
CN(c1c(F)c(F)c(C#N)c(F)c1F)[N+](=O)[O-] | 53 °C
Oc1ccc(Br)c(Cl)c1 | 66 °C
Nc1cccc(CN2CCOCC2)c1 | 73 to 75 °C
CC(=O)N[C@H]1C(O)O[C@H](CO)[C@@H](O)[C@@H]1O (stereo not given in full) | 211 °C
COc1ccc2c3c1OC1CC(O)C=CC31CCN(C)C2 (stereo not given) | 126 °C
COc1cc2c(cc1O)C(Cc1ccc(O)cc1)NCC2 (stereo not given) | 220 °C
CC(=O)Oc1ccc(O)cc1 | 62 °C
FC(F)(F)c1cc(Cl)c2c(Cl)cc(Cl)cc2n1 | 111 to 114 °C
NCCCCCCCCCCCCN | 70 °C
O=C(Nc1ccc(Br)cc1Br)C(C(F)(F)F)(C(F)(F)F)C(F)(F)F | 228 to 230 °C
CCOc1ccc(C(=O)OC)cc1 | 36 °C
O=C(O)c1ccc(C(=O)O)c(Br)c1 | 295 to 297 °C
CC(=O)Oc1cc(OC(C)=O)cc(C(=O)O)c1 | 159 °C
O=C(O)c1ccc[nH]c1=S | 270 °C
Oc1ccccc1CCc1ccccc1 | 85 °C
NCCCCCCCC(=O)O | 195 °C

Compound | melting point
O=C1CCCN1c1ccc([N+](=O)[O-])cc1 | 128 to 130 °C
Nc1ccc(Cl)cc1I | 40 to 42 °C
CC(=O)OC[C@H]1O[C@@H](OC(C)=O)[C@H](OC(C)=O)[C@@H](OC(C)=O)[C@H]1OC(C)=O | 144 °C
NC(=O)CC[C@H](NC(=O)OCC1c2ccccc2-c2ccccc21)C(=O)O | 218 to 223 °C
Nc1cc(Cl)c(Cl)c(Cl)c1 | 99 °C
O=C(Cl)c1ccc2c(c1)C(=O)OC2=O | 68 °C
NC(=O)CC1(CC(=O)O)CCCCC1 | 140 to 145 °C
O=C(Cl)c1cccc(-c2ncccn2)c1 | 136 to 137 °C
Cc1cc(Br)cc(C)c1N=C=S | 79.5 °C
CC1(C)C(C(=O)c2ccccc2)=Nc2ccccc21 | 83 °C
CCN(CC)C(=O)Cl | -32 °C
CC(C)(C(=O)O)n1nc2ccccc2n1 | 152 °C
CCc1ccc2cc3ccccc3cc2c1 | 152 °C
Cn1nc(C(F)(F)F)c(-c2ccccc2)c1N | 85 to 89 °C
CCCCCCCc1ccc(C(=O)Oc2ccc(C#N)cc2)cc1 | 43 to 46 °C
Cc1coc2ccccc2c1=O | 68 °C
OC(CCl)CCl | -4 °C
CC(C)(C)c1cc(C(=O)NN)[nH]n1 | 177 to 181 °C
CCN(CC)c1ccc(C(=O)O)cc1 | 194 °C
Clc1cccnc1-c1ccnc(Cl)c1Cl | 169 °C
